# Source: US20050239656A1, “Pyridine compounds or salts thereof and herbicides containing the same” (priority 2002, published 2005)
# Tested on: velvetleaf
# Experiment: Test Example 2: soil surface treatment, upland pot test
# Assay type: in vivo, Abutilon theophrasti MEDIC.
# Conditions: active ingredient 500 g/ha, observed 20th to 28th day
# Outline: (§1)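 A pre-emergence soil application: formulated compound at a predetermined active-ingredient dose, diluted in water to 1,500 L/ha, sprayed on upland soil a day after seeding in 1/170,000 ha pots; growth control rated visually, 0 (untreated level) to 100 (kill), at 20–28 days.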
row,SMILES,Growth controlling degree (%) Velvetleaf [%]
1,CC(C)C(c1cnccc1C(F)(F)F)N(C)C(=O)COc1ccccc1 (centres unmarked) [I-229],50
2,CC(C)C(c1cnccc1C(F)(F)F)N(C)C(=O)Cc1ccc(F)c(C(F)(F)F)c1 (centres unmarked) [I-61],60

# Tested on: corn
# Experiment: Test Example 1: foliage treatment, upland pot test
# Assay type: in vivo, Zea mays L.
# Conditions: crop, active ingredient 500 g/ha, observed 18th to 23rd day, 0 = non-treated, 100 = complete kill
# Outline: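 Corn seeds were sown in upland field soil held in a 1/170,000 ha pot and grown to the 2.1 to 3.2 leaf stage. A wettable powder or emulsifiable concentrate of the test compound was diluted with water at 500 L/ha, given 0.1% (v/v) agricultural spreader, and sprayed onto the foliage with a small sprayer. Growth controlling degree (%) was scored visually 18th to 23rd days later, from 0 (non-treated) to 100 (complete kill).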
row,SMILES,Growth controlling degree (%) Corn [%]
1,CC(C)C(c1cnccc1C(F)(F)F)N(C)C(=O)COc1ccccc1 (centres unmarked) [I-229],10
2,CC(C)C(c1cnccc1C(F)(F)F)N(C)C(=O)Cc1ccc(F)c(C(F)(F)F)c1 (centres unmarked) [I-61],30

# Tested on: rice
# Experiment: Test Example 2: soil surface treatment, upland pot test
# Assay type: in vivo, Oryza sativa L.
# Conditions: active ingredient 500 g/ha, observed 20th to 28th day
# Outline: as §1
row,SMILES,Growth controlling degree (%) Rice [%]
1,CC(C)C(c1cnccc1C(F)(F)F)N(C)C(=O)COc1ccccc1 (centres unmarked) [I-229],50
2,CC(C)C(c1cnccc1C(F)(F)F)N(C)C(=O)Cc1ccc(F)c(C(F)(F)F)c1 (centres unmarked) [I-61],10

# Tested on: barnyardgrass
# Experiment: Test Example 1: foliage treatment, upland pot test
# Assay type: in vivo, Echinochloa crus-galli L.
# Conditions: active ingredient 500 g/ha, observed 18th to 23rd day, 0 = non-treated, 100 = complete kill
# Outline: (§2)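 Upland pot test, foliar. Soybean 0.1–0.4 / wheat 1.3–2.4 / rice 1.2–2.6 / barnyardgrass 1.3–2.8 leaf stage at spraying; 500 L/ha carrier, 0.1% (v/v) spreader. Visual % control, 0 untreated to 100 dead, days 18–23.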
row,SMILES,Growth controlling degree (%) Barnyardgrass [%]
1,CC(C)C(c1cnccc1C(F)(F)F)N(C)C(=O)COc1ccccc1 (centres unmarked) [I-229],60
2,CC(C)C(c1cnccc1C(F)(F)F)N(C)C(=O)Cc1ccc(F)c(C(F)(F)F)c1 (centres unmarked) [I-61],30

# Tested on: soybean
# Experiment: Test Example 2: soil surface treatment, upland pot test
# Assay type: in vivo, Glycine max Merr.
# Conditions: active ingredient 500 g/ha, observed 20th to 28th day
# Outline: as §1
row,SMILES,Growth controlling degree (%) Soyabean [%]
1,CC(C)C(c1cnccc1C(F)(F)F)N(C)C(=O)COc1ccccc1 (centres unmarked) [I-229],10
2,CC(C)C(c1cnccc1C(F)(F)F)N(C)C(=O)Cc1ccc(F)c(C(F)(F)F)c1 (centres unmarked) [I-61],20

# Tested on: redroot pigweed
# Experiment: Test Example 1: foliage treatment, upland pot test
# Assay type: in vivo, Amaranthus retroflexus L.
# Conditions: active ingredient 500 g/ha, observed 18th to 23rd day, 0 = non-treated, 100 = complete kill
row,SMILES,Growth controlling degree (%) Redroot pigweed [%]
1,CC(C)C(c1cnccc1C(F)(F)F)N(C)C(=O)COc1ccccc1 (centres unmarked) [I-229],80
2,CC(C)C(c1cnccc1C(F)(F)F)N(C)C(=O)Cc1ccc(F)c(C(F)(F)F)c1 (centres unmarked) [I-61],70

# Tested on: crabgrass
# Experiment: Test Example 1: foliage treatment, upland pot test
# Assay type: in vivo, Digitaria sanguinalis L.
# Conditions: active ingredient 500 g/ha, observed 18th to 23rd day, 0 = non-treated, 100 = complete kill
row,SMILES,Growth controlling degree (%) Crabgrass [%]
1,CC(C)C(c1cnccc1C(F)(F)F)N(C)C(=O)COc1ccccc1 (centres unmarked) [I-229],80
2,CC(C)C(c1cnccc1C(F)(F)F)N(C)C(=O)Cc1ccc(F)c(C(F)(F)F)c1 (centres unmarked) [I-61],80

# Tested on: velvetleaf
# Experiment: Test Example 1: foliage treatment, upland pot test
# Assay type: in vivo, Abutilon theophrasti MEDIC.
# Conditions: active ingredient 500 g/ha, observed 18th to 23rd day, 0 = non-treated, 100 = complete kill
row,SMILES,Growth controlling degree (%) Velvetleaf [%]
1,CC(C)C(c1cnccc1C(F)(F)F)N(C)C(=O)COc1ccccc1 (centres unmarked) [I-229],90
2,CC(C)C(c1cnccc1C(F)(F)F)N(C)C(=O)Cc1ccc(F)c(C(F)(F)F)c1 (centres unmarked) [I-61],80

# Tested on: crabgrass
# Experiment: Test Example 2: soil surface treatment, upland pot test
# Assay type: in vivo, Digitaria sanguinalis L.
# Conditions: active ingredient 500 g/ha, observed 20th to 28th day
# Outline: as §1
row,SMILES,Growth controlling degree (%) Crabgrass [%]
1,CC(C)C(c1cnccc1C(F)(F)F)N(C)C(=O)COc1ccccc1 (centres unmarked) [I-229],100
2,CC(C)C(c1cnccc1C(F)(F)F)N(C)C(=O)Cc1ccc(F)c(C(F)(F)F)c1 (centres unmarked) [I-61],80

# Tested on: soybean
# Experiment: Test Example 1: foliage treatment, upland pot test
# Assay type: in vivo, Glycine max Merr.
# Conditions: crop, active ingredient 500 g/ha, observed 18th to 23rd day, 0 = non-treated, 100 = complete kill
# Outline: as §2
row,SMILES,Growth controlling degree (%) Soybean [%]
1,CC(C)C(c1cnccc1C(F)(F)F)N(C)C(=O)COc1ccccc1 (centres unmarked) [I-229],50
2,CC(C)C(c1cnccc1C(F)(F)F)N(C)C(=O)Cc1ccc(F)c(C(F)(F)F)c1 (centres unmarked) [I-61],70

# Tested on: green foxtail
# Experiment: Test Example 2: soil surface treatment, upland pot test
# Assay type: in vivo, Setaria viridis L.
# Conditions: active ingredient 500 g/ha, observed 20th to 28th day
# Outline: as §1
row,SMILES,Growth controlling degree (%) Green foxtail [%]
1,CC(C)C(c1cnccc1C(F)(F)F)N(C)C(=O)COc1ccccc1 (centres unmarked) [I-229],100
2,CC(C)C(c1cnccc1C(F)(F)F)N(C)C(=O)Cc1ccc(F)c(C(F)(F)F)c1 (centres unmarked) [I-61],70

# Tested on: prickly sida
# Experiment: Test Example 1: foliage treatment, upland pot test
# Assay type: in vivo, Sida spinosa L.
# Conditions: active ingredient 500 g/ha, observed 18th to 23rd day, 0 = non-treated, 100 = complete kill
row,SMILES,Growth controlling degree (%) Prickly sida [%]
1,CC(C)C(c1cnccc1C(F)(F)F)N(C)C(=O)COc1ccccc1 (centres unmarked) [I-229],80
2,CC(C)C(c1cnccc1C(F)(F)F)N(C)C(=O)Cc1ccc(F)c(C(F)(F)F)c1 (centres unmarked) [I-61],80

# Tested on: barnyardgrass
# Experiment: Test Example 3: paddy pot test, application under submerged conditions
# Assay type: in vivo, Echinochloa crus-galli L.
# Conditions: active ingredient 250 g/ha; submerged application at 0.5 leaf stage; visually observed 14 days after application; 0 = non-treated, 100 = complete kill
# Outline: (§3)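 Barnyardgrass and japanese bulrush sown in flooded paddy soil in greenhouse pots, japanese ribbon wapato tubers planted 1–2 days later; water depth kept at 3–4 cm. Diluted wettable powder or emulsifiable concentrate applied into water at 0.5-leaf or primary-leaf stage at set active-ingredient doses. Growth control scored visually at 14 days, 0 (untreated) to 100% (complete kill).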
row,SMILES,Growth controlling degree (%) Barnyardgrass [%]
1,CC(C)C(c1cnccc1C(F)(F)F)N(C)C(=O)Cc1ccc(F)c(C(F)(F)F)c1 (centres unmarked) [I-61],95

# Same assay, conditions: active ingredient 500 g/ha; submerged application at 0.5 leaf stage; visually observed 14 days after application; 0 = non-treated, 100 = complete kill
row,SMILES,Growth controlling degree (%) Barnyardgrass [%]
1,CC(C)C(c1cnccc1C(F)(F)F)N(C)C(=O)COc1ccccc1 (centres unmarked) [I-229],100

# Tested on: corn
# Experiment: Test Example 2: soil surface treatment, upland pot test
# Assay type: in vivo, Zea mays L.
# Conditions: active ingredient 500 g/ha, observed 20th to 28th day
# Outline: as §1
row,SMILES,Growth controlling degree (%) Corn [%]
1,CC(C)C(c1cnccc1C(F)(F)F)N(C)C(=O)COc1ccccc1 (centres unmarked) [I-229],100
2,CC(C)C(c1cnccc1C(F)(F)F)N(C)C(=O)Cc1ccc(F)c(C(F)(F)F)c1 (centres unmarked) [I-61],10

# Tested on: redroot pigweed
# Experiment: as above
# Assay type: in vivo, Amaranthus retroflexus L.
# Conditions: active ingredient 500 g/ha, observed 20th to 28th day
# Outline: as §1
row,SMILES,Growth controlling degree (%) Redroot pigweed [%]
1,CC(C)C(c1cnccc1C(F)(F)F)N(C)C(=O)COc1ccccc1 (centres unmarked) [I-229],98
2,CC(C)C(c1cnccc1C(F)(F)F)N(C)C(=O)Cc1ccc(F)c(C(F)(F)F)c1 (centres unmarked) [I-61],70

# Tested on: green foxtail
# Experiment: Test Example 1: foliage treatment, upland pot test
# Assay type: in vivo, Setaria viridis L.
# Conditions: active ingredient 500 g/ha, observed 18th to 23rd day, 0 = non-treated, 100 = complete kill
row,SMILES,Growth controlling degree (%) Green foxtail [%]
1,CC(C)C(c1cnccc1C(F)(F)F)N(C)C(=O)COc1ccccc1 (centres unmarked) [I-229],70
2,CC(C)C(c1cnccc1C(F)(F)F)N(C)C(=O)Cc1ccc(F)c(C(F)(F)F)c1 (centres unmarked) [I-61],90

# Tested on: rice (var. Nihonbare)
# Experiment: Test Example 3: paddy pot test, transplanted rice
# Assay type: in vivo, Oryza sativa L.
# Conditions: active ingredient 250 g/ha, applied 4th day after transplantation, visually observed 21st day after application, 0 = non-treated, 100 = complete kill
# Outline: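 Rice (var. Nihonbare) at 2 leaf stage transplanted 3 cm deep into puddled paddy soil under 3–4 cm flooding; on day 4 after transplanting, diluted wettable powder or emulsifiable concentrate applied by pipette under submerged conditions at a set active-ingredient dose. Growth scored visually 21 days after application, 0 (untreated) to 100 (complete kill) %.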
row,SMILES,Growth controlling degree (%) Rice [%]
1,CC(C)C(c1cnccc1C(F)(F)F)N(C)C(=O)Cc1ccc(F)c(C(F)(F)F)c1 (centres unmarked) [I-61],10

# Same assay, conditions: active ingredient 500 g/ha, applied 4th day after transplantation, visually observed 21st day after application, 0 = non-treated, 100 = complete kill
row,SMILES,Growth controlling degree (%) Rice [%]
1,CC(C)C(c1cnccc1C(F)(F)F)N(C)C(=O)COc1ccccc1 (centres unmarked) [I-229],0

# Tested on: japanese bulrush
# Experiment: Test Example 3: paddy pot test, application under submerged conditions
# Assay type: in vivo, Scirpus juncoides
# Conditions: active ingredient 250 g/ha; submerged application at 0.5 leaf stage; visually observed 14 days after application; 0 = non-treated, 100 = complete kill
# Outline: as §3
row,SMILES,Growth controlling degree (%) Japanese bulrush [%]
1,CC(C)C(c1cnccc1C(F)(F)F)N(C)C(=O)Cc1ccc(F)c(C(F)(F)F)c1 (centres unmarked) [I-61],0

# Same assay, conditions: active ingredient 500 g/ha; submerged application at 0.5 leaf stage; visually observed 14 days after application; 0 = non-treated, 100 = complete kill
row,SMILES,Growth controlling degree (%) Japanese bulrush [%]
1,CC(C)C(c1cnccc1C(F)(F)F)N(C)C(=O)COc1ccccc1 (centres unmarked) [I-229],95

# Tested on: prickly sida
# Experiment: Test Example 2: soil surface treatment, upland pot test
# Assay type: in vivo, Sida spinosa L.
# Conditions: active ingredient 500 g/ha, observed 20th to 28th day
# Outline: as §1
row,SMILES,Growth controlling degree (%) Prickly sida [%]
1,CC(C)C(c1cnccc1C(F)(F)F)N(C)C(=O)COc1ccccc1 (centres unmarked) [I-229],100
2,CC(C)C(c1cnccc1C(F)(F)F)N(C)C(=O)Cc1ccc(F)c(C(F)(F)F)c1 (centres unmarked) [I-61],98

# Tested on: japanese ribbon wapato
# Experiment: Test Example 3: paddy pot test, application under submerged conditions
# Assay type: in vivo, Sagittaria pygniaea
# Conditions: active ingredient 250 g/ha; submerged application at primary leaf stage; visually observed 14 days after application; 0 = non-treated, 100 = complete kill
# Outline: as §3
row,SMILES,Growth controlling degree (%) Japanese ribbon wapato [%]
1,CC(C)C(c1cnccc1C(F)(F)F)N(C)C(=O)Cc1ccc(F)c(C(F)(F)F)c1 (centres unmarked) [I-61],20

# Same assay, conditions: active ingredient 500 g/ha; submerged application at primary leaf stage; visually observed 14 days after application; 0 = non-treated, 100 = complete kill
row,SMILES,Growth controlling degree (%) Japanese ribbon wapato [%]
1,CC(C)C(c1cnccc1C(F)(F)F)N(C)C(=O)COc1ccccc1 (centres unmarked) [I-229],90

# Tested on: rice
# Experiment: Test Example 1: foliage treatment, upland pot test
# Assay type: in vivo, Oryza sativa L.
# Conditions: crop, active ingredient 500 g/ha, observed 18th to 23rd day, 0 = non-treated, 100 = complete kill
# Outline: as §2
row,SMILES,Growth controlling degree (%) Rice [%]
1,CC(C)C(c1cnccc1C(F)(F)F)N(C)C(=O)COc1ccccc1 (centres unmarked) [I-229],30
2,CC(C)C(c1cnccc1C(F)(F)F)N(C)C(=O)Cc1ccc(F)c(C(F)(F)F)c1 (centres unmarked) [I-61],30

# Tested on: barnyardgrass
# Experiment: Test Example 2: soil surface treatment, upland pot test
# Assay type: in vivo, Echinochloa crus-galli L.
# Conditions: active ingredient 500 g/ha, observed 20th to 28th day
# Outline: as §1
row,SMILES,Growth controlling degree (%) Barnyardgrass [%]
1,CC(C)C(c1cnccc1C(F)(F)F)N(C)C(=O)COc1ccccc1 (centres unmarked) [I-229],100
2,CC(C)C(c1cnccc1C(F)(F)F)N(C)C(=O)Cc1ccc(F)c(C(F)(F)F)c1 (centres unmarked) [I-61],20
